From US12697317B2 (priority 2019, dated 2026) come the findings set out here.

Data set [1] is described as follows: Safety of LOPA in hospitalized patients with cirrhosis, hyperammonemia and acute HE, Study 3. To be noted: hospitalized patients with hyperammonemia and an acute episode of HE. As for the experimental part:
(§1) Pharmacokinetics Analysis
(§2) Adverse events (AEs) were assessed and coded using the Medical Dictionary for Regulatory Activities (MedDRA) preferred term and system organ class.
(§3) The evaluation of potential correlation between central nervous system (CNS) AEs and PAA exposure was conducted on data from Studies 1-3. The first reported drug-related CNS AE was included in the analysis. For each such CNS AE, two PAA concentrations were identified based on the time of onset of the AE and the time of PAA assessment: (1) the closest PAA concentration before the onset of the AE; and (2) the closest PAA concentrations after the onset of the […] All time points were calculated relative to the start of study drug infusion.

Data set [2] can be described thus: Steady state plasma PAA in hospitalized patients with cirrhosis and HE, Study 3. Type of data set: in vivo, human. To be noted: for median concentration of PAA at steady state: Study 3, Child-Pugh C patients. As for the experimental part: as §1
(§4) Both non-compartmental analysis and population PK analysis were conducted to identify factors attributing to the PK of PAA, ORN, and PAGN. Ethnicity factor on the PK of PAA was explored using the PK data from Caucasian, Chinese, and Japanese healthy subjects in Studies 1 and 4.

A short description of data set [3]: PK of PAA, ORN and PAGN in severe renal impairment vs normal renal function, Study 5.
Method: Seven subjects with severe renal impairment and seven age, sex, and weight-matched subjects with normal renal function participated, wherein 5 males and 2 females participated in both groups.
(§5) Plasma concentrations of ORN, PAA, PAGN, and urine concentrations of PAGN were measured using a validated LC-MS/MS method.
The nature of data set [4]: Plasma exposure by baseline creatinine clearance group (FIG. 1; Studies 2, 3 and 5). The procedure: Renal dysfunction is expected to elevate PAGN plasma concentrations. AE data from subjects with severe renal impairment were summarized. […] CLcr of 35 mL/min was chosen as a cut-off value in order to have relatively sufficient sample size for the group with relatively worse renal function.

The next data set in a line: clinical. Particulars: human, in vivo, iv.
A short description of data set [5]: Safety/tolerability of LOPA in healthy subjects (SAD/MAD), Study 1. Particulars: Study 1, healthy subjects, FIG. 2. The procedure:
as §1, §2, §3

Data set [6] can be described thus: Safety/tolerability of LOPA in patients with stable cirrhosis, Study 2. Particulars: Study 2, FIG. 3. As for the experimental part:
as §1, §2, §3

A short description of data set [7]: Population PK modeling of PAA, Studies 2, 3 and 5. Type of data set: in vivo, human. The procedure:
as §4
Hepatic impairment also altered PAA plasma exposure. To identify the factors contributing to PAA plasma exposure, population PK modeling was conducted. A one-compartment model with Michaelis-Menten kinetics describing the formation of PAGN from PAA adequately quantified PAA plasma concentration profiles in healthy subjects and patients. Body weight was identified as a significant covariate for the PK of PAA in both healthy subjects and patients. Other factors such as ethnicity and hepatic/renal impairment on the PK of PAA are described below.

[8] abbreviates: normal renal function, LOPA 15 g/24 hour IV.
Setting [9] is: severely impaired renal function, LOPA 7 g/24 hours IV.

Method for clinical: as §5
Hepatic dysfunction on PAA PK was investigated using the PK data from patients in Studies 2 and 3. Renal dysfunction on PAA and PAGN plasma exposure was explored using the PK data from Studies 2, 3 and 5.

In general, half-life refers to the time in which the quantity being followed falls by half. `O=C(O)Cc1ccccc1` [PAA, phenylacetic acid]: the “PAA exposure related neurotoxicity” value in data set [1] is given as “No PAA exposure related neurotoxicity”. Also, the “median concentration of PAA at steady state” value in [2] (10 g/24 hr (n=23)) is 118 µg/mL; in data set [2] (15 g/24 hr (n=38)), 120 µg/mL. Further, in [2] (Study 3, LOPA 15 g/24 h, during infusion period), the “plasma PAA concentration at steady state, higher in Child-Pugh C than Child-Pugh B patients” value is “approximately 35%”. Further, the “mean dose normalized PAA AUCt” value in data set [3] (setting [8]) was determined as 54.9 µg·h/mL/g; in data set [3] (setting [9]), 45.4 µg·h/mL/g. In addition, the results for the “mean dose normalized PAA Cmax” value in [3] (setting [8]) and in data set [3] (setting [9]) were 2.61 µg/mL/g and 1.58 µg/mL/g, respectively. In addition, in data set [4], the “PAA plasma concentrations, CLcr ≤35 mL/min group vs >35 mL/min group” value was “no difference”. The half-life in “clinical” (3 g/4 h) was 39 min; in the data set “clinical” (30 g/4 h) it was 359 min; in the data set “clinical” (30 g/24 h), 75 min; in “clinical” (60 g/24 h), 245 min. In addition, the “severity of CNS AEs vs PAA plasma concentrations” value in data set [5] was “appeared to be correlated”. Besides, in [6], the “PAA concentrations vs CNS AE occurrence” value is given as “No correlation”. Moreover, the “impact of renal dysfunction on the exposure of PAA” value in [7] (mild, moderate or severe renal dysfunction, population PK analysis) was “insignificant impact”. The “PAA exposure at steady state, Child-Pugh C higher than Child-Pugh B” value in data set [7] (population PK model, same body weight) stood at 36%. Where the note is “IV LOPA from 10 g/4 h or 20 g/24 h up, healthy subjects and subjects with stable cirrhosis”, the “PAA PK: increase in Cmax and AUC with dose” value is recorded as “greater than dose-proportional increase”. In addition, the “Recovered PAA as unchanged compound in urine” value (after IV LOPA) is < 1 % of the administered dose of PAA.
